In patent US20260217693A1, “SRPK1 INHIBITORS AND METHODS OF USE” (ALLIANTHERA (SUZHOU) BIOPHARMACEUTICAL CO., LTD., priority 2023, published 2026):

Biological target: SRPK1 (Homo sapiens, UniProt Q96SB4)
Assay: SRPK1 assay, Method 1 (ADP-Glo luminescence)
Assay type: biochemical
Settings: Method 1 (no asterisk): substrate Human SRSF1/SF2, 25° C. for 90 min, test compounds 30 μM top, 3-fold, duplicate
Protocol: The SPRK1 assay was performed as follows:
Method 1: The assay buffer was prepared. The reference compound was diluted to 10 mM. The test compounds were prepared at a concentration of 30 mM. Fifteen nL of compounds/DMSO were transferred to a multi-well plate. Then, 7.5 ul enzyme SRPK1 was added to each well, the plate was spun down at 1000 rpm and centrifuged for 30 sec. Then, 7.5 ul substrate Human SRSF1/SF2 was added to each well, the plate spun down at 1000 rpm and centrifuged for 30 sec. The plate was then incubated at 25° C. for 90 min. After 90 min, 5 μl of ADP-Glo™ Reagent was added to each well and the plate incubated at room temperature for 60 minutes. Then, 10 μl of Kinase Detection Reagent was added to each well and the plate incubate at room temperature for 60 minutes. The luminescence of each well was recorded on Envision. The test compounds were at 30 μM top, 3-fold, in duplicate, and the final concentration of DMSO was 0.1%.
All assays were performed using Method 1, except where indicated with an asterisk (*) in the below table, indicating Method 2 was used.

Chain of SRPK1 (Q96SB4 whole entry): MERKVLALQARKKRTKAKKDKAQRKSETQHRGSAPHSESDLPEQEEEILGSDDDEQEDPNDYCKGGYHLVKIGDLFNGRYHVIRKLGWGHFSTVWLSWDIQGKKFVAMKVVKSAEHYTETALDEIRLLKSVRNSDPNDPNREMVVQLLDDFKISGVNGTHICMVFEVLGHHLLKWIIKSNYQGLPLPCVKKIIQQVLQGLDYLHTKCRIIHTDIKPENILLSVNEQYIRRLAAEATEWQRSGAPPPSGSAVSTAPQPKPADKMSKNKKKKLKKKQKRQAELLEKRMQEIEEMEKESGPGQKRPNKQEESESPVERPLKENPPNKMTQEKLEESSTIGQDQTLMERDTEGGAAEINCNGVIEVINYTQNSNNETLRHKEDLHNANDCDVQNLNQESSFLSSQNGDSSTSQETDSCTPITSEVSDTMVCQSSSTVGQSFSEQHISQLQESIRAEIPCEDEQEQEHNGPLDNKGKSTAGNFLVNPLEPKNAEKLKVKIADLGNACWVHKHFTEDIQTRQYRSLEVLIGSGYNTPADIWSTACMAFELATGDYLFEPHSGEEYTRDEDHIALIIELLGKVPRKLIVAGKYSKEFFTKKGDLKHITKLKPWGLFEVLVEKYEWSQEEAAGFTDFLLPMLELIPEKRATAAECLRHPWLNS

SMILES | IC50
CC1C[C@@H](O)CCN1c1ncc(C(F)(F)F)cc1NC(=O)c1ccc(-c2ccncc2)o1 (stereo in doubt) [Compound 079, N-(2-((2R,4S)-4-hydroxy-2-methylpiperidin-1-yl)-5-(trifluoromethyl)pyridin-3-yl)-5-(pyridin-4-yl) furan-2-carboxamide] | 102 nM
CC1C[C@@H](O)CCN1c1ncc(C(F)(F)F)cc1NC(=O)c1ccc(-c2ccncc2)o1 (stereo in doubt) [Compound 080, N-(2-((2S,4S)-4-hydroxy-2-methylpiperidin-1-yl)-5-(trifluoromethyl)pyridin-3-yl)-5-(pyridin-4-yl) furan-2-carboxamide] | 344 nM
CN1CCN(c2ncc(C(F)(F)F)cc2NC(=O)c2ccc(-c3ccncc3)o2)CC1 [Compound 003] | 971 nM
O=C(Nc1cc(C(F)(F)F)cnc1N1CCC(O)CC1)c1ccc(-c2ccncc2)o1 [Compound 004, N-(2-(4-hydroxypiperidin-1-yl)-5-(trifluoromethyl)pyridin-3-yl)-5-(pyridine-4-yl) furan-2-carboxamide] | 79 nM
O=C(Nc1cc(C(F)(F)F)cnc1-c1ccccc1)c1ccc(C2CCOCC2)o1 [Compound 008] | > 30000 nM
O=C(Nc1cc(C(F)(F)F)cnc1-c1cccnc1)c1ccc(C2CCOCC2)o1 [Compound 009] | > 30000 nM
O=C(Nc1cc(C(F)(F)F)cnc1-c1ccncc1)c1ccc(C2CCOCC2)o1 [Compound 010] | 8240 nM
O=C(Nc1cc(C(F)(F)F)cnc1-c1cn[nH]c1)c1ccc(C2CCOCC2)o1 [Compound 012] | 109 nM
O=C(Nc1cc(C(F)(F)F)cnc1-c1cncnc1)c1ccc(C2CCOCC2)o1 [Compound 013] | 14700 nM
O=C(Nc1cc(C(F)(F)F)cnc1-c1cn[nH]c1)c1ccc(-c2ccncc2)o1 [Compound 014] | > 30000 nM
O=C(Nc1cc(C(F)(F)F)cnc1N1CCC(O)CC1)c1ccc(-c2ccnc(F)c2)o1 [Compound 016] | > 30000 nM
O=C(Nc1cc(C(F)(F)F)cnc1-c1ccn[nH]1)c1ccc(C2CCOCC2)o1 [Compound 019] | 217 nM
O=C(Nc1cc(C(F)(F)F)cnc1N1CCC(O)CC1)c1ccc(-c2ccnc(O)c2)o1 [Compound 021] | 13.5 nM
O=C(Nc1cc(C2CC2)cnc1N1CCC(O)CC1)c1ccc(-c2ccnc(F)c2)o1 [Compound 023] | 55.1 nM
CC1(O)CCN(c2ncc(Cl)cc2NC(=O)c2ccc(-c3ccncc3)o2)CC1 [Compound 024] | 346 nM
CC1(O)CCN(c2ncc(C(F)(F)F)cc2NC(=O)c2ccc(-c3ccncc3)o2)CC1 [Compound 026] | 358 nM

SMILES | IC50
CC(=O)OC1CCN(c2ncc(C3CC3)cc2NC(=O)c2ccc(C3CCOCC3)o2)CC1 [Compound 028] | 105 nM
O=C(Nc1cc(C2CC2)cnc1N1CCC(O)CC1)c1ccc(C2CCOCC2)o1 [Compound 029] | 30.9 nM
CC(=O)OC1CCN(c2ncc(C3CC3)cc2NC(=O)c2ccc(-c3ccncc3)o2)CC1 [Compound 033, 1-(5-cyclopropyl-3-(5-(pyridin-4-yl)furan-2-carboxamido)pyridin-2-yl) piperidin-4-yl acetate] | 202 nM
O=C(Nc1cc(C2CC2)cnc1N1CCC(O)CC1)c1ccc(-c2ccncc2)o1 [Compound 034] | 24.8 nM
O=C(Nc1cc(C(F)(F)F)cnc1N1CCC(O)CC1)c1ccncc1 [Compound 046, N-[2-(4-hydroxy-1-piperidyl)-5-(trifluoromethyl)-3-pyridyl]pyridine-4-carboxamide] | > 30000 nM
O=C(Nc1cc(C(F)(F)F)cnc1N1CCC(O)CC1)c1ccccn1 [Compound 047] | 260 nM
CC(=O)OC1CCN(c2ncc(C(F)(F)F)cc2NC(=O)c2ccc(-c3ccnnc3)o2)CC1 [Compound 049] | 2340 nM
O=C(Nc1cc(C(F)(F)F)cnc1N1CCC(O)CC1)c1ccc(-c2ccnnc2)o1 [Compound 050] | 435 nM
O=C(Nc1cc(C(F)(F)F)cnc1N1CCC(O)CC1)c1cccnc1 [Compound 051] | > 30000 nM
Cn1cc(-c2ccc(C(=O)Nc3cc(C(F)(F)F)cnc3N3CCC(O)CC3)o2)cn1 [Compound 054] | 18.5 nM
O=C(Nc1cc(C(F)(F)F)cnc1N1CCC(O)CC1)c1ccc(-c2cccnc2)o1 [Compound 056] | 23.5 nM
CC1(O)CCCN(c2ncc(C(F)(F)F)cc2NC(=O)C2CCC(C3CCOCC3)O2)CC1 (stereo not drawn) [Compound 058] | 15700 nM
O=C(Nc1cc(C(F)(F)F)cnc1N1CCC(O)CC1)c1ccc(-c2cncnc2)o1 [Compound 063] | 13500 nM
O=C(Nc1cc(C(F)(F)F)cnc1N1CCC(O)(C(F)(F)F)CC1)c1ccc(-c2ccncc2)o1 [Compound 064] | 249 nM
CC(=O)OC1CCN(c2ncc(C(F)(F)F)cc2NC(=O)c2ccc(C(F)(F)F)cn2)CC1 [Compound 068] | > 30000 nM

Continued, values first:

IC50 | SMILES
309 nM | O=C(Nc1cc(C(F)(F)F)cnc1N1CCN(Cc2ccccn2)CC1)c1ccc(C2CCOCC2)o1 [Compound 002, N-(2-(4-(pyridin-2-ylmethyl)piperazin-1-yl)-5-(trifluoromethyl)pyridin-3-yl)-5-(tetrahydro-2H-pyran-4-yl) furan-2-carboxamide]
41.9 nM | O=C(Nc1cc(C(F)(F)F)cnc1N1CCC(O)CC1)c1ccc(C2CCOCC2)o1 [Compound 005]
252 nM | O=C(Nc1cc(Cl)cnc1N1CCC(O)CC1)c1ccc(C2CCOCC2)o1 [Compound 007]
7490 nM | Cn1cc(-c2ncc(C(F)(F)F)cc2NC(=O)c2ccc(C3CCOCC3)o2)cn1 [Compound 011]
170 nM | CC1(O)CCN(c2ncc(Cl)cc2NC(=O)c2ccc(C3CCOCC3)o2)CC1 [Compound 025]
36.7 nM | CC1(O)CCN(c2ncc(C(F)(F)F)cc2NC(=O)c2ccc(C3CCOCC3)o2)CC1 [Compound 027, N-[2-(4-hydroxy-4-methyl-1-piperidyl)-5-(trifluoromethyl)-3-pyridyl]-5-tetrahydropyran-4-yl-furan-2-carboxamide]
232 nM | CN1CCC2(CCN(c3ncc(C(F)(F)F)cc3NC(=O)c3ccc(C4CCOCC4)o3)CC2)C1=O [Compound 030]
360 nM | O=C(Nc1cc(C(F)(F)F)cnc1N1CCCC(O)CC1)c1ccc(C2CCOCC2)o1 (stereo not drawn) [Compound 031]
114 nM | COC(=O)C1(C)CCN(c2ncc(C(F)(F)F)cc2NC(=O)c2ccc(C3CCOCC3)o2)CC1 [Compound 032, methyl 4-methyl-1-[3-[(5-tetrahydropyran-4-ylfuran-2-carbonyl)amino]-5-(trifluoromethyl)-2-pyridyl]piperidine-4-carboxylate]
> 30000 nM | O=C(Nc1cc(C(F)(F)F)cnc1N1CCC(O)C1)c1ccc(C2CCOCC2)o1 (stereo not drawn) [Compound 035]
> 30000 nM | O=C(Nc1cc(C(F)(F)F)cnc1N1CCCCC1)c1ccc(C2CCOCC2)o1 [Compound 036]
> 30000 nM | O=C(Nc1cc(C(F)(F)F)cnc1N1CCOCC1)c1ccc(C2CCOCC2)o1 [Compound 037]
24500 nM | O=C(Nc1cc(C(F)(F)F)cnc1N1CCC(CO)C1)c1ccc(C2CCOCC2)o1 (stereo not drawn) [Compound 038]
> 30000 nM | O=C(Nc1cc(C(F)(F)F)cnc1N1CC(O)C1)c1ccc(C2CCOCC2)o1 [Compound 039]
193 nM | CN(C)C(=O)C1CCN(c2ncc(C(F)(F)F)cc2NC(=O)c2ccc(C3CCOCC3)o2)CC1 [Compound 040]
> 30000 nM | O=C(Nc1cc(C(F)(F)F)cnc1N1CCSCC1)c1ccc(C2CCOCC2)o1 [Compound 041]
> 30000 nM | O=C(Nc1cc(C(F)(F)F)cnc1N1CCS(=O)(=O)CC1)c1ccc(C2CCOCC2)o1 [Compound 042]
> 30000 nM | CC1(CN)CCN(c2ncc(C(F)(F)F)cc2NC(=O)c2ccc(C3CCOCC3)o2)CC1 [Compound 043]
154 nM | CC1(C(=O)O)CCN(c2ncc(C(F)(F)F)cc2NC(=O)c2ccc(C3CCOCC3)o2)CC1 [Compound 044]
84.5 nM | CN(C)C(=O)C1(C)CCN(c2ncc(C(F)(F)F)cc2NC(=O)c2ccc(C3CCOCC3)o2)CC1 [Compound 045]
45.1 nM | CC1(O)CCCN(c2ncc(C(F)(F)F)cc2NC(=O)c2ccc(C3CCOCC3)o2)CC1 (stereo not drawn) [Compound 055]
30.5 nM | CNC(=O)C1(C)CCN(c2ncc(C(F)(F)F)cc2NC(=O)c2ccc(C3CCOCC3)o2)CC1 [Compound 057]
78.7 nM | CC(=O)OC1CC2(CCN(c3ncc(C(F)(F)F)cc3NC(=O)c3ccc(C4CCOCC4)o3)CC2)C1 [Compound 059]
51.9 nM | O=C(Nc1cc(C(F)(F)F)cnc1N1CCC2(CC1)CC(O)C2)c1ccc(C2CCOCC2)o1 [Compound 060]
8200 nM | O=C(Nc1cc(C(F)(F)F)cnc1N1CCC(O)CC1)c1ccc(C2CCNCC2)o1 [Compound 061]
> 30000 nM | O=C(Nc1cc(C(F)(F)F)cnc1C1CCNCC1)c1ccc(C2CCOCC2)o1 [Compound 062]
204 nM | O=C1CC2(CCN(c3ncc(C(F)(F)F)cc3NC(=O)c3ccc(C4CCOCC4)o3)CC2)C1 [Compound 065, N-(2-(2-oxo-7-azaspiro[3.5]nonan-7-yl)-5-(trifluoromethyl)pyridin-3-yl)-5-(tetrahydro-2H-pyran-4-yl) furan-2-carboxamide]
> 30000 nM | CN1CCC(c2ccc(C(=O)Nc3cc(C(F)(F)F)cnc3N3CCC(O)CC3)o2)CC1 [Compound 066, N-[2-(4-hydroxy-1-piperidyl)-5-(trifluoromethyl)-3-pyridyl]-5-(1-methyl-4-piperidyl) furan-2-carboxamide]
63.7 nM | O=C(Nc1cc(C(F)(F)F)cnc1N1CCC(O)(C(F)(F)F)CC1)c1ccc(C2CCOCC2)o1 [Compound 069]
